# Test results: PMC4001115 (International journal of toxicology, 2014)
# Key:
# [1] = Toxicokinetics: plasma DAC by LC-MS/MS after oral gavage; type: in vivo, CD-1 mice; conditions: for Cmax / AUC: plasma, po; for AUC: AUCfit
# [2] = system: bone marrow polychromatic erythrocytes (PCEs); experiment: Bone marrow micronucleus analysis; type: in vivo, CD-1 mice; conditions: DAC 1.0 mg/kg; for Number of MPCE/1000 PCE (Mean +/− SD): single animal
# CD-1 mice = experiment: Microscopic findings; type: in vivo; conditions: THU/DAC 167/0.0 mg/kg; for Cytoplasmic Alteration, MK (Minimal): bone marrow
# beagle dog = conditions: single intravenous injections up to 1 g/kg; cited from earlier work
# monkey = conditions: single intravenous injections up to 1 g/kg; cited from earlier work
# [3] = mice, 100 mg/kg po, cited from earlier work
# [4] = male, CD-1, mouse, 0.2 mg/kg, males, THU/DAC 167/0.2 mg/kg, Day 1
# [5] = male, CD-1, mouse, 0.2 mg/kg, males, THU/DAC 167/0.2 mg/kg, Day 58
# [6] = male, CD-1, mouse, 0.4 mg/kg, males, THU/DAC 167/0.4 mg/kg, Day 1
# [7] = male, CD-1, mouse, 0.4 mg/kg, males, THU/DAC 167/0.4 mg/kg, Day 58
# [8] = male, CD-1, mouse, 1 mg/kg, males, THU/DAC 0/1.0 mg/kg, Day 1
# [9] = male, CD-1, mouse, 1 mg/kg, males, THU/DAC 0/1.0 mg/kg, Day 58
# [10] = male, CD-1, mouse, 1 mg/kg, males, THU/DAC 167/1.0 mg/kg, Day 1
# [11] = male, CD-1, mouse, 1 mg/kg, males, THU/DAC 167/1.0 mg/kg, Day 58
structure (smiles),measurement,setting,value
"Nc1ncn([C@H]2C[C@H](O)[C@@H](CO)O2)c(=O)n1 [DAC, 5-aza-2’-deoxycytidine]",DAC detectable in plasma through (post dose),"[1]; both, CD-1, mouse, in vivo",180 min
same,"DAC exposure, female mice compared to males","[1]; both, CD-1, mouse, in vivo",~ 2 fold
same,Cmax,"[1]; female, CD-1, mouse, 0.2 mg/kg, females, THU/DAC 167/0.2 mg/kg, Day 1",1900 nM
same,Cmax,"[1]; female, CD-1, mouse, 0.2 mg/kg, females, THU/DAC 167/0.2 mg/kg, Day 58",960 nM
same,Cmax,"[1]; female, CD-1, mouse, 0.4 mg/kg, females, THU/DAC 167/0.4 mg/kg, Day 1",2780 nM
same,Cmax,"[1]; female, CD-1, mouse, 0.4 mg/kg, females, THU/DAC 167/0.4 mg/kg, Day 58",1650 nM
same,Cmax,"[1]; female, CD-1, mouse, 1 mg/kg, females, THU/DAC 0/1.0 mg/kg, Day 1",2050 nM
same,Cmax,"[1]; female, CD-1, mouse, 1 mg/kg, females, THU/DAC 0/1.0 mg/kg, Day 58",1230 nM
same,DAC detectable in plasma through (post dose),"[1]; male, CD-1, mouse, in vivo",120 min
same,AUC,[1]; [4],1.57 µM·h
same,AUC,[1]; [5],1.25 µM·h
same,Cmax,[1]; [4],1180 nM
same,Cmax,[1]; [5],700 nM
same,AUC,[1]; [6],3.08 µM·h
same,AUC,[1]; [7],2.11 µM·h
same,Cmax,[1]; [6],2620 nM
same,Cmax,[1]; [7],980 nM
same,AUC,[1]; [8],0.864 µM·h
same,AUC,[1]; [9],0.976 µM·h
same,AUC,[1]; [10],7.65 µM·h
same,AUC,[1]; [11],5.87 µM·h
same,Cmax,[1]; [8],1750 nM
same,Cmax,[1]; [9],1200 nM
same,Cmax,[1]; [10],5810 nM
same,Cmax,[1]; [11],4740 nM
same,time of plasma DAC Cmax,[1]; oral DAC with or without THU,≤ 1 h
same,Number of MPCE/PCE Scored,[2]; F,^*73 / 2000
same,PCE/Total Erythrocytes (Mean+/−SD),[2]; F,0.168±0.05
same,"PCE/Total Erythrocytes, Change from Control",[2]; F,−65%
same,Number of MPCE/1000 PCE (Mean +/− SD),[2]; F,36.5 ± ^1SD
same,Number of MPCE/PCE Scored,[2]; M,^*41 / 2000
same,PCE/Total Erythrocytes (Mean+/−SD),[2]; M,0.127±0.06
same,"PCE/Total Erythrocytes, Change from Control",[2]; M,−73%
same,Number of MPCE/1000 PCE (Mean +/− SD),[2]; M,20.5 ± ^1SD
"O=C1NC(O)CCN1[C@@H]1O[C@H](CO)[C@@H](O)[C@H]1O (stereo partly drawn) [THU, tetrahydrouridine]","Cytoplasmic Alteration, MK (Minimal)","CD-1 mice; females, Day 59",0/10
same,"Cytoplasmic Alteration, MK (Minimal)","CD-1 mice; males, Day 59",0/10
same,"Bone Marrow Cytoplasmic Alteration, MK, Minimal","CD-1 mice; females, Day 31",0/6
same,"Bone Marrow Hypocellularity, Marked","CD-1 mice; females, Day 31",0/6
same,"Bone Marrow Hypocellularity, Moderate","CD-1 mice; females, Day 31",0/6
same,"Duodenum Apoptosis, Minimal-Mild","CD-1 mice; females, Day 31",0/6
same,"Ileum Apoptosis, Minimal-Mild","CD-1 mice; females, Day 31",0/6
same,"Jejunum Apoptosis, Minimal-Mild","CD-1 mice; females, Day 31",0/6
same,"Spleen Proliferation, MK, Red Pulp, Minimal-Mild","CD-1 mice; females, Day 31",0/6
same,"Thymus Depletion, Lymphoid Cortex, Marked","CD-1 mice; females, Day 31",0/5
same,"Thymus Depletion, Lymphoid Cortex, Mild-Moderate","CD-1 mice; females, Day 31",0/5
same,"Uterus Atrophy, Mild","CD-1 mice; females, Day 31",0/6
same,"Bone Marrow Hypocellularity, Marked","CD-1 mice; females, Day 59",0/10
same,"Bone Marrow Hypocellularity, Moderate","CD-1 mice; females, Day 59",0/10
same,"Duodenum Apoptosis, Minimal-Mild","CD-1 mice; females, Day 59",0/10
same,"Ileum Apoptosis, Minimal-Mild","CD-1 mice; females, Day 59",0/10
same,"Jejunum Apoptosis, Minimal-Mild","CD-1 mice; females, Day 59",0/10
same,"Spleen Proliferation, MK, Red Pulp, Minimal-Mild","CD-1 mice; females, Day 59",0/10
same,"Uterus Atrophy, Mild","CD-1 mice; females, Day 59",0/10
same,"Bone Marrow Cytoplasmic Alteration, MK, Minimal","CD-1 mice; males, Day 31",0/6
same,"Bone Marrow Hypocellularity, Marked","CD-1 mice; males, Day 31",0/6
same,"Bone Marrow Hypocellularity, Moderate","CD-1 mice; males, Day 31",0/6
same,"Duodenum Apoptosis, Minimal-Mild","CD-1 mice; males, Day 31",0/6
same,"Epididymides Hypospermia, Head, Marked","CD-1 mice; males, Day 31",0/6
same,"Epididymides Hypospermia, Head, Minimal-moderate","CD-1 mice; males, Day 31",0/6
same,"Epididymides Hypospermia, Tail, Mild-moderate","CD-1 mice; males, Day 31",0/6
same,"Ileum Apoptosis, Minimal-Mild","CD-1 mice; males, Day 31",0/6
same,"Jejunum Apoptosis, Minimal-Mild","CD-1 mice; males, Day 31",0/6
same,"Spleen Proliferation, MK, Red Pulp, Minimal-Mild","CD-1 mice; males, Day 31",0/6
same,"Testis Degeneration, Seminiferous Tubules, Marked","CD-1 mice; males, Day 31",0/6
same,"Testis Degeneration, Seminiferous Tubules, Minimal-mild","CD-1 mice; males, Day 31",0/6
same,"Testis Degeneration, Seminiferous Tubules, Moderate","CD-1 mice; males, Day 31",0/6
same,"Thymus Depletion, Lymphoid Cortex, Marked","CD-1 mice; males, Day 31",0/6
same,"Thymus Depletion, Lymphoid Cortex, Mild-Moderate","CD-1 mice; males, Day 31",0/6
same,"Bone Marrow Hypocellularity, Marked","CD-1 mice; males, Day 59",0/10
same,"Bone Marrow Hypocellularity, Moderate","CD-1 mice; males, Day 59",0/10
same,"Duodenum Apoptosis, Minimal-Mild","CD-1 mice; males, Day 59",0/10
same,"Epididymides Hypospermia, Head, Marked","CD-1 mice; males, Day 59",0/10
same,"Epididymides Hypospermia, Head, Moderate","CD-1 mice; males, Day 59",0/10
same,"Epididymides Hypospermia, Tail, Mild-moderate","CD-1 mice; males, Day 59",0/10
same,"Ileum Apoptosis, Minimal-Mild","CD-1 mice; males, Day 59",0/10
same,"Jejunum Apoptosis, Minimal-Mild","CD-1 mice; males, Day 59",0/10
same,"Spleen Proliferation, MK, Red Pulp, Minimal-Mild","CD-1 mice; males, Day 59",0/10
same,"Testis Degeneration, Seminiferous Tubules, Marked","CD-1 mice; males, Day 59",0/10
same,"Testis Degeneration, Seminiferous Tubules, Mild-moderate","CD-1 mice; males, Day 59",0/10
same,"Testis Degeneration, Seminiferous Tubules, Severe","CD-1 mice; males, Day 59",0/10
same,"Thymus Depletion, Lymphoid Cortex, Marked","CD-1 mice; males, Day 59",0/10
same,"Thymus Depletion, Lymphoid Cortex, Mild-Moderate","CD-1 mice; males, Day 59",0/10
same,toxic effects,beagle dog,no notable toxic effects
same,toxic effects,monkey,no notable toxic effects
same,half life,[3],1.42 h
same,oral bioavailability,[3],20%
same,sustained plasma concentrations that inhibit CDA,[3]; for several hours,> 1 µg/mL
